Assay results published in ChEMBL document CHEMBL3351412, “Design, synthesis and biological evaluation of β-boswellic acid based HDAC inhibitors as inducers of cancer cell death” (Bioorg Med Chem Lett, 2014).
pIC50: −log10 of the molar value. Activity calls are given as the source filed them. No cut-off for these calls is given here.

Tests used:
[1] = Cytotoxicity against human HL60 cells; type: functional, cell-based; details: HL-60
[2] = system: A549; test: Cytotoxicity against human A549 cells; type: functional, cell-based
[3] = Cytotoxicity against human HCT116 cells; type: functional, cell-based; details: HCT-116
[4] = Cytotoxicity against human MIAPaCa2 cells; type: functional, cell-based; details: MIA PaCa-2
[5] = system: MCF7; test: Cytotoxicity against human MCF7 cells; type: functional, cell-based
[6] = Cytotoxicity against human FR2 cells; type: cell-based
[7] = target: T1, Histone deacetylase (Homo sapiens) (UniProt Q13547+O15379+Q9UBN7+Q92769+Q9UQL6+Q8WUI4+Q9BY41+Q96DB2+P56524+Q9UKV0+Q969S8); test: Inhibition of HDAC (unknown origin) at 50 uM; type: protein assay
[8] = target: T1, Histone deacetylase (Homo sapiens); test: Inhibition of HDAC (unknown origin) at 30 uM; type: protein assay
[9] = target: T1, Histone deacetylase (Homo sapiens); test: Inhibition of HDAC (unknown origin) at 20 uM; type: protein assay
[10] = target: T1, Histone deacetylase (Homo sapiens); test: Inhibition of HDAC (unknown origin) at 10 uM; type: protein assay
[11] = target: T1, Histone deacetylase (Homo sapiens); test: Inhibition of HDAC (unknown origin) at 1 uM; type: protein assay
[12] = target: Histone deacetylase; test: Inhibition of HDAC (unknown origin); type: protein assay, Homo sapiens
[13] = Cell cycle arrest in human HL60 cells assessed as accumulation at sub-G1 phase at 1 uM by propidium iodide staining-based flow cytometry (reference value: 2.1%); type: functional; details: HL-60
[14] = Cell cycle arrest in human HL60 cells assessed as accumulation at G1 phase at 1 uM by propidium iodide staining-based flow cytometry (reference value: 58.9%); type: functional; details: HL-60
[15] = Cell cycle arrest in human HL60 cells assessed as accumulation at S phase at 1 uM by propidium iodide staining-based flow cytometry (reference value: 17.3%); type: functional; details: HL-60
[16] = Cell cycle arrest in human HL60 cells assessed as accumulation at G2/M phase at 1 uM by propidium iodide staining-based flow cytometry (reference value: 21.3%); type: functional; details: HL-60
[17] = Cell cycle arrest in human HL60 cells assessed as accumulation at sub-G1 phase at 5 uM by propidium iodide staining-based flow cytometry (reference value: 2.1%); type: functional; details: HL-60
[18] = Cell cycle arrest in human HL60 cells assessed as accumulation at G1 phase at 5 uM by propidium iodide staining-based flow cytometry (reference value: 58.9%); type: functional; details: HL-60
[19] = Cell cycle arrest in human HL60 cells assessed as accumulation at S phase at 5 uM by propidium iodide staining-based flow cytometry (reference value: 17.3%); type: functional; details: HL-60
[20] = Cell cycle arrest in human HL60 cells assessed as accumulation at G2/M phase at 5 uM by propidium iodide staining-based flow cytometry (reference value: 21.3%); type: functional; details: HL-60
[21] = Cell cycle arrest in human HL60 cells at 5 to 10 uM by propidium iodide staining-based flow cytometry; type: functional; details: HL-60
[22] = system: HL-60; test: Induction of apoptosis in human HL60 cells assessed as loss of mitochondrial membrane potential in P5 quadrant at 1 uM by Rhodamine123 assay (reference value: 3.4%); type: functional
[23] = system: HL-60; test: Induction of apoptosis in human HL60 cells assessed as loss of mitochondrial membrane potential in P4 quadrant at 1 uM by Rhodamine123 assay (reference value: 96.6%); type: functional
[24] = system: HL-60; test: Induction of apoptosis in human HL60 cells assessed as loss of mitochondrial membrane potential in P5 quadrant at 5 uM by Rhodamine123 assay (reference value: 3.4%); type: functional
[25] = system: HL-60; test: Induction of apoptosis in human HL60 cells assessed as loss of mitochondrial membrane potential in P4 quadrant at 5 uM by Rhodamine123 assay (reference value: 96.6%); type: functional

C[C@H]1[C@H](C)CC[C@]2(C)CC[C@]3(C)C(=CC(=O)[C@@H]4[C@@]5(C)CC[C@@H](O)[C@](C)(NC(=O)CCCC(=O)NO)[C@@H]5CC[C@]43C)[C@H]12
pIC50 [1]: 5.80
pIC50 [2]: 4.89
pIC50 [3]: 4.82
pIC50 [4]: 4.82
pIC50 [5]: 5.15
pIC50 [6]: 5.72
inhibition [7]: 88%
inhibition [8]: 86%
inhibition [9]: 70%
inhibition [10]: 65%
inhibition [11]: 23%
IC50 [12]: 6 µM
Activity [13]: 6.1%
Activity [14]: 74.5%
Activity [15]: 8%
Activity [16]: 10.7%
Activity [17]: 92.2%
Activity [18]: 7.2%
Activity [19]: 0.7%
Activity [20]: 7.1%
Activity [21]: Active
Activity [22]: 6.7%
Activity [23]: 93.3%
Activity [24]: 96.4%
Activity [25]: 3.6%

C[C@H]1[C@H](C)CC[C@]2(C)CC[C@]3(C)C(=CC[C@@H]4[C@@]5(C)CC[C@@H](O)[C@](C)(NC(=O)CCCCCCC(=O)NO)[C@@H]5CC[C@]43C)[C@H]12
pIC50 [1]: < 4.70
pIC50 [2]: < 4.70
pIC50 [3]: < 4.70
pIC50 [4]: < 4.70
pIC50 [5]: < 4.70
pIC50 [6]: < 4.70
inhibition [7]: 56%
inhibition [8]: 50%
IC50 [12]: 30 µM
Activity [13]: 7.4%
Activity [14]: 57.8%
Activity [15]: 16.8%
Activity [16]: 16.8%
Activity [17]: 4.5%
Activity [18]: 60.6%
Activity [19]: 15.7%
Activity [20]: 18.6%
Activity [22]: 3.2%
Activity [23]: 96.8%
Activity [24]: 29.8%
Activity [25]: 70.2%
